From PubChem BioAssay AID256 (DTP/NCI, 2004)
Where “and” joins values, the source holds several entries; their conditions need not be identical. Equal values may be shown once. Toxic doses and inconclusive results are not listed. The calls were made as follows: active = survival T/C of 150% or more; inactive = T/C below 125% in these data.

Tested on: CD2F1 mice, L1210 leukemia ip, survival T/C
Assay: NCI In Vivo Anticancer Drug Screen. Data for tumor model L1210 Leukemia (intraperitoneal) in CD2F1 (CDF1) mice
Conditions: higher = longer survival
Method in brief: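 Compound-dosed mice with transplantable tumor versus matched vehicle controls; endpoint ratio T/C reported.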

[1] = endpoint: mean survival time, dose: 200.0 mg/kg/injection, schedule: Q01DX009 (ip), vehicle: saline
[2] = endpoint: mean survival time, dose: 50.0 mg/kg/injection, schedule: Q01DX009 (ip), vehicle: saline with Tween-80
[3] = endpoint: mean survival time, dose: 100.0 mg/kg/injection, schedule: Q01DX009 (ip), vehicle: saline with Tween-80
[4] = endpoint: mean survival time, dose: 100.0 mg/kg/injection, schedule: Q04DX003 (ip), vehicle: saline with Tween-80
[5] = endpoint: mean survival time, dose: 200.0 mg/kg/injection, schedule: Q04DX003 (ip), vehicle: saline with Tween-80
[6] = endpoint: mean survival time, dose: 200.0 mg/kg/injection, schedule: Q01DX009 (ip), vehicle: saline with Tween-80
[7] = endpoint: mean survival time, dose: 400.0 mg/kg/injection, schedule: Q01DX009 (ip), vehicle: saline with Tween-80
[8] = endpoint: mean survival time, dose: 400.0 mg/kg/injection, schedule: Q04DX003 (ip), vehicle: saline with Tween-80
[9] = endpoint: mean survival time, dose: 100.0 mg/kg/injection, schedule: Q04DX002 (ip), vehicle: saline with Tween-80
[10] = endpoint: mean survival time, dose: 200.0 mg/kg/injection, schedule: Q04DX002 (ip), vehicle: saline with Tween-80
[11] = endpoint: mean survival time, dose: 100.0 mg/kg/injection, schedule: Q01DX001 (ip), vehicle: saline with Tween-80
[12] = endpoint: mean survival time, dose: 200.0 mg/kg/injection, schedule: Q01DX001 (ip), vehicle: saline with Tween-80
[13] = endpoint: mean survival time, dose: 400.0 mg/kg/injection, schedule: Q01DX001 (ip), vehicle: saline with Tween-80
[14] = endpoint: mean survival time, dose: 25.0 mg/kg/injection, schedule: Q01DX009 (ip), vehicle: saline with Tween-80

Measured: T/C

Nc1nc(F)nc2c1ncn2C1CC(O)C(CO)O1 (stereo not drawn)
inactive: endpoint: mean survival time, dose: 75.0 mg/kg/injection, schedule: Q01DX001 (ip), vehicle: saline 105 % of control | endpoint: mean survival time, dose: 100.0 mg/kg/injection, schedule: Q01DX001 (ip), vehicle: other 113 % of control | endpoint: mean survival time, dose: 150.0 mg/kg/injection, schedule: Q01DX001 (ip), vehicle: saline 109 % of control | endpoint: mean survival time, dose: 200.0 mg/kg/injection, schedule: Q01DX001 (ip), vehicle: other 110 % of control | endpoint: mean survival time, dose: 400.0 mg/kg/injection, schedule: Q01DX001 (ip), vehicle: other 107 % of control
active: endpoint: median survival time, dose: 25.0 mg/kg/injection, schedule: Q03HX024 (ip), vehicle: saline with Tween-80 219 % of control | endpoint: median survival time, dose: 30.0 mg/kg/injection, schedule: Q03HX024 (ip), vehicle: saline with Tween-80 234 % of control | endpoint: median survival time, dose: 30.0 mg/kg/injection, schedule: Q03HX024 (ip), vehicle: saline 211 % of control | endpoint: median survival time, dose: 35.0 mg/kg/injection, schedule: Q03HX024 (ip), vehicle: saline with Tween-80 250 % of control | endpoint: median survival time, dose: 40.0 mg/kg/injection, schedule: Q03HX024 (ip), vehicle: saline with Tween-80 158 % of control | endpoint: median survival time, dose: 40.0 mg/kg/injection, schedule: Q03HX024 (ip), vehicle: saline 227 % of control

CN(CC(=O)C(C)(C)C)c1ccccc1
inactive: endpoint: mean survival time, dose: 100.0 mg/kg/injection, schedule: Q04DX003 (ip), vehicle: saline 103 % of control | endpoint: mean survival time, dose: 200.0 mg/kg/injection, schedule: Q04DX003 (ip), vehicle: saline 97 % of control | endpoint: mean survival time, dose: 400.0 mg/kg/injection, schedule: Q04DX003 (ip), vehicle: saline 103 % of control

NC(CSC(c1ccccc1)(c1ccccc1)c1ccccc1)C(=O)NCC(=O)O (stereo not drawn)
inactive: endpoint: mean survival time, dose: 25.0 mg/kg/injection, schedule: Q01DX009 (ip), vehicle: saline 110 % of control
active: [1] 171 % of control

C/C=C/CC(C)C(O)C1C(=O)NC(CC)C(=O)N(C)CC(=O)N(C)C(CC(C)C)C(=O)NC(C(C)C)C(=O)N(C)C(CC(C)C)C(=O)NC(C)C(=O)NC(C)C(=O)N(C)C(CC(C)C)C(=O)N(C)C(CC(C)C)C(=O)N(C)C(C(C)C)C(=O)N1C (stereo not drawn)
inactive: endpoint: median survival time, dose: 25.0 mg/kg/injection, schedule: Q01DX009 (ip), vehicle: Klucel (hydroxypropylcellulose) (HPC) 102 % of control | endpoint: median survival time, dose: 50.0 mg/kg/injection, schedule: Q01DX009 (ip), vehicle: Klucel (hydroxypropylcellulose) (HPC) 107 % of control | endpoint: median survival time, dose: 100.0 mg/kg/injection, schedule: Q01DX009 (ip), vehicle: Klucel (hydroxypropylcellulose) (HPC) 106 % of control

Cc1ccc(NC(=O)CCl)cc1Cl
inactive: [2] 95 % of control | [3] 90 % of control | [4] 98 % of control | [5] 89 % of control

COc1ccc(/C=C/C(=O)c2ccccc2)cc1Br
inactive: [3] 104 % of control | [4] 97 % of control | [6] 98 % of control | [5] 98 % of control | [7] 101 % of control | [8] 95 % of control

O=C(/C(=N\O)c1ccc(Cl)cc1)c1ccc(Cl)cc1
inactive: [4] 95 % of control | [5] 87 % of control

Cc1ccc(S(=O)(=O)Oc2ccc(Br)cc2)cc1
inactive: [9] 96 % of control | [10] 86 % of control

Cc1ccc(NC(=S)NC(=O)/C=C/c2ccccc2)cc1Cl
inactive: endpoint: mean survival time, dose: 50.0 mg/kg/injection, schedule: Q04DX002 (ip), vehicle: saline with Tween-80 95 % of control and 97 % of control | [9] 91 % of control and 97 % of control | [10] 93 % of control and 94 % of control

c1ccc(C2COCC2c2ccccc2)cc1 (stereo not drawn)
inactive: [11] 86 % of control | [12] 92 % of control | [13] 93 % of control

Nc1cc(=O)c2[nH]cnc2[nH]1
inactive: endpoint: mean survival time, dose: 100.0 mg/kg/injection, schedule: Q01DX001 (ip), vehicle: carboxymethylcellulose (CMC) 95 % of control | endpoint: mean survival time, dose: 200.0 mg/kg/injection, schedule: Q01DX001 (ip), vehicle: carboxymethylcellulose (CMC) 104 % of control | endpoint: mean survival time, dose: 400.0 mg/kg/injection, schedule: Q01DX001 (ip), vehicle: carboxymethylcellulose (CMC) 101 % of control

Nc1nc[nH]c(=O)c1NC(=O)c1cccc([N+](=O)[O-])c1
inactive: endpoint: mean survival time, dose: 50.0 mg/kg/injection, schedule: Q04DX003 (ip), vehicle: saline with Tween-80 101 % of control and 111 % of control | [9] 96 % of control and 109 % of control | [10] 92 % of control and 104 % of control | endpoint: mean survival time, dose: 400.0 mg/kg/injection, schedule: Q04DX002 (ip), vehicle: saline with Tween-80 114 % of control and 96 % of control

O=C(/C=C/c1ccccc1)N1CC2CCC(CC2)C1
inactive: [2] 94 % of control | [3] 94 % of control | [6] 91 % of control

CC(=O)SCC(C)CCl (stereo not drawn)
inactive: endpoint: mean survival time, dose: 100.0 mg/kg/injection, schedule: Q01DX009 (ip), vehicle: saline 101 % of control | [1] 98 % of control | endpoint: mean survival time, dose: 400.0 mg/kg/injection, schedule: Q01DX009 (ip), vehicle: saline 104 % of control

Nc1ncccc1[N+](=O)[O-]
inactive: [11] 97 % of control | [4] 105 % of control | [12] 96 % of control | [5] 102 % of control | [13] 98 % of control | [8] 105 % of control

O=C(Oc1c(Cl)c(Cl)c(Cl)c(Cl)c1Cl)c1ccc([N+](=O)[O-])cc1
inactive: [3] 101 % of control | [6] 97 % of control | [7] 95 % of control

O=S(=O)(c1cc(Cl)ccc1O)c1cc(Cl)ccc1O
inactive: endpoint: mean survival time, dose: 100.0 mg/kg/injection, schedule: Q01DX001 (ip), vehicle: saline 103 % of control | endpoint: mean survival time, dose: 200.0 mg/kg/injection, schedule: Q01DX001 (ip), vehicle: saline 100 % of control | endpoint: mean survival time, dose: 400.0 mg/kg/injection, schedule: Q01DX001 (ip), vehicle: saline 100 % of control

COC(COS(=O)(=O)c1ccc(Br)cc1)(c1ccccc1)c1ccccc1
inactive: endpoint: mean survival time, dose: 12.5 mg/kg/injection, schedule: Q01DX009 (ip), vehicle: saline with Tween-80 95 % of control | [14] 88 % of control | [2] 88 % of control

CCCCCCCCCCCCCCCCCCCOc1ccc(OCCCCCCCCCCCC)cc1
inactive: [11] 93 % of control | [12] 89 % of control | [13] 88 % of control

CC(C)CNC(=O)c1ccc(N=NN(C)Cc2ccncc2)cc1
inactive: [2] 104 % of control | [3] 122 % of control | [4] 105 % of control | [5] 117 % of control

CCOC(=O)C(C(C)=O)C(=O)CCc1ccccc1 (stereo not drawn)
inactive: [4] 99 % of control | [5] 100 % of control | [8] 103 % of control

O=C1CCC(=O)CC1
inactive: endpoint: mean survival time, dose: 100.0 mg/kg/injection, schedule: Q04DX002 (ip), vehicle: saline 111 % of control | endpoint: mean survival time, dose: 200.0 mg/kg/injection, schedule: Q04DX002 (ip), vehicle: saline 107 % of control | endpoint: mean survival time, dose: 400.0 mg/kg/injection, schedule: Q04DX002 (ip), vehicle: saline 107 % of control

C[N+](C)(C)CC1CS1 (stereo not drawn)
inactive: endpoint: mean survival time, dose: 4.5 mg/kg/injection, schedule: Q01DX009 (ip), vehicle: saline sonified 96 % of control | endpoint: mean survival time, dose: 4.5 mg/kg/injection, schedule: Q04DX003 (ip), vehicle: saline 98 % of control | endpoint: mean survival time, dose: 9.0 mg/kg/injection, schedule: Q01DX009 (ip), vehicle: saline sonified 94 % of control | endpoint: mean survival time, dose: 9.0 mg/kg/injection, schedule: Q04DX003 (ip), vehicle: saline 98 % of control | endpoint: mean survival time, dose: 18.0 mg/kg/injection, schedule: Q01DX009 (ip), vehicle: saline sonified 92 % of control | endpoint: mean survival time, dose: 18.0 mg/kg/injection, schedule: Q04DX003 (ip), vehicle: saline 95 % of control

CC1=NN(c2cccc(S(=O)(=O)O)c2)C(=O)C1
inactive: endpoint: mean survival time, dose: 100.0 mg/kg/injection, schedule: Q01DX009 (ip), vehicle: saline sonified 88 % of control

CN(C)CCSCC(OC(=O)c1ccccc1)c1ccccc1 (stereo not drawn)
inactive: [14] 102 % of control | [2] 98 % of control | [3] 100 % of control

O/N=C/c1ccc[nH]1
inactive: [4] 96 % of control | [5] 96 % of control | [8] 96 % of control

[Cl][Pt+2][Cl].[NH-]CC(O)c1ccc2oc3ccccc3c2c1.[NH-]CC(O)c1ccc2oc3ccccc3c2c1 (stereo not drawn)
inactive: endpoint: median survival time, dose: 10.0 mg/kg/injection, schedule: Q04DX003 (ip), vehicle: saline 104 % of control | endpoint: median survival time, dose: 20.0 mg/kg/injection, schedule: Q04DX003 (ip), vehicle: saline 108 % of control | endpoint: median survival time, dose: 40.0 mg/kg/injection, schedule: Q04DX003 (ip), vehicle: saline 104 % of control | endpoint: median survival time, dose: 80.0 mg/kg/injection, schedule: Q04DX003 (ip), vehicle: saline with Tween-80 109 % of control | endpoint: median survival time, dose: 80.0 mg/kg/injection, schedule: Q04DX003 (ip), vehicle: saline 108 % of control
